Data as given in patent US9034884B2, “Heterocyclic-substituted pyrrolopyridines and pyrrolopyrimidines as JAK inhibitors” (Incyte Corporation, priority 2010, dated 2015).

How the values were obtained:
[1] = target: T1, human JAK1 (a.a. 837-1142) catalytic domain (Homo sapiens, UniProt P23458); test: In vitro JAK kinase assay (HTRF, phosphorylation of biotinylated peptide), JAK1; type: biochemical; conditions: ATP 1 mM
T1 construct: human JAK1 (a.a. 837-1142); His tag (N); made in house; host or cells: insect cells (baculovirus)
Method: Compounds herein were tested for inhibitory activity of JAK targets according to the following in vitro assay described in Park et al., Analytical Biochemistry 1999, 269, 94-104. The catalytic domains of human JAK1 (a.a. 837-1142) and JAK2 (a.a. 828-1132) with an N-terminal His tag were expressed using baculovirus in insect cells and purified. The catalytic activity of JAK1 and JAK2 was assayed by measuring the phosphorylation of a biotinylated peptide. The phosphorylated peptide was detected by homogenous time resolved fluorescence (HTRF). […] For the 1 mM IC50 measurements, ATP concentration in the reactions was 1 mM. Reactions were carried out at room temperature for 1 hour and then stopped with 20 μL 45 mM EDTA, 300 nM SA-APC, 6 nM Eu-Py20 in assay buffer (Perkin Elmer, Boston, Mass.). Binding to the Europium labeled antibody took place for 40 minutes and HTRF signal was measured on a Fusion plate reader (Perkin Elmer, Boston, Mass.). […] Data is indicated as ranges, wherein “+” is less than 5 nM; “++” is 5 nM to 25 nM; “+++” is greater than 25 nM to 100 nM; and “++++” is greater than 100 nM.

[2] = target: T2, JAK2 (a.a. 828-1132) catalytic domain (Homo sapiens, UniProt O60674); test: In vitro JAK kinase assay (HTRF, phosphorylation of biotinylated peptide), JAK2; type: biochemical; conditions: ATP 1 mM
T2 construct: JAK2 (a.a. 828-1132); His tag (N); made in house; host or cells: insect cells (baculovirus)
Method: Compounds herein were tested for inhibitory activity of JAK targets according to the following in vitro assay described in Park et al., Analytical Biochemistry 1999, 269, 94-104. The catalytic domains of human JAK1 (a.a. 837-1142) and JAK2 (a.a. 828-1132) with an N-terminal His tag were expressed using baculovirus in insect cells and purified. The catalytic activity of JAK1 and JAK2 was assayed by measuring the phosphorylation of a biotinylated peptide. The phosphorylated peptide was detected by homogenous time resolved fluorescence (HTRF). […] For the 1 mM IC50 measurements, ATP concentration in the reactions was 1 mM. Reactions were carried out at room temperature for 1 hour and then stopped with 20 μL 45 mM EDTA, 300 nM SA-APC, 6 nM Eu-Py20 in assay buffer (Perkin Elmer, Boston, Mass.). Binding to the Europium labeled antibody took place for 40 minutes and HTRF signal was measured on a Fusion plate reader (Perkin Elmer, Boston, Mass.). See Tables A and B for data related to compounds of the invention (at 1 mM). Data is indicated as ranges, wherein “+” is less than 5 nM; “++” is 5 nM to 25 nM; “+++” is greater than 25 nM to 100 nM; and “++++” is greater than 100 nM.

T1 sequence (P23458 849-1154): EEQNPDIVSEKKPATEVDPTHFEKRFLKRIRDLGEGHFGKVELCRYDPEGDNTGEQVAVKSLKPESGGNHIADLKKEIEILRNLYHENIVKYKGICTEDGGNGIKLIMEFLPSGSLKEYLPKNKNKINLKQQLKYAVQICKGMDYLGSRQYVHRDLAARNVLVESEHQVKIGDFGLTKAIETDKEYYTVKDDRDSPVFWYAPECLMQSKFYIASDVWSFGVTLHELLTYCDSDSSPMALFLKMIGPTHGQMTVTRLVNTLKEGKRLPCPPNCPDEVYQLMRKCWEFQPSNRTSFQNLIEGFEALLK
T2 sequence (O60674 828-1132): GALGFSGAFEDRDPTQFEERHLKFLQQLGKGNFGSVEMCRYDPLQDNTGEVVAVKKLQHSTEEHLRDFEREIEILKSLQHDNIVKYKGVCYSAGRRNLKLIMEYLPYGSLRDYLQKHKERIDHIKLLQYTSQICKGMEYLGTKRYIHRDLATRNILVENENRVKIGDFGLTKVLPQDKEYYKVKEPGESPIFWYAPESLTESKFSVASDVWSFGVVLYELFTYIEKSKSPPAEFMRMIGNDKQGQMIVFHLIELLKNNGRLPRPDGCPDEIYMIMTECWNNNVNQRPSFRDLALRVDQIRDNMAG

SMILES | IC50 ([1]; Table A) [nM] | IC50 ([2]; Table A) [nM] | IC50 ([1]; Table B) [nM] | IC50 ([2]; Table B) [nM]
N#CCC(CN1CCC(Oc2cc(F)cc(CN3CCOCC3)c2)CC1)n1cc(-c2ncnc3[nH]ccc23)cn1 (stereo not drawn) [Example 26, 4-{4-[3-fluoro-5-(morpholin-4-ylmethyl)phenoxy]piperidin-1-yl}-3-[4-(7H-pyrrolo[2,3-d]pyrimidin-4-yl)-1H-pyrazol-1-yl]butanenitrile] | 5 to 25 | > 100 | – | –
C[C@H]1CCCN1Cc1cc(F)cc(OC2CCN(CC(CC#N)n3cc(-c4ncnc5[nH]ccc45)cn3)CC2)c1 (stereo partly drawn) [Example 29, 4-[4-(3-fluoro-5-{[(2S)-2-methylpyrrolidin-1-yl]methyl}phenoxy)piperidin-1-yl]-3-[4-(7H-pyrrolo[2,3-d]pyrimidin-4-yl)-1H-pyrazol-1-yl]butanenitrile] | < 5 | 25 to 100 | – | –
N#CCC(CN1CCC(Oc2cc(F)cc(C#N)c2)CC1)n1cc(-c2ncnc3[nH]ccc23)cn1 (stereo not drawn) [Example 6, 3-[(1-{3-Cyano-2-[4-(7H-pyrrolo[2,3-d]pyrimidin-4-yl)-1H-pyrazol-1-yl]propyl}piperidin-4-yl)oxy]-5-fluorobenzonitrile tris(trifluoroacetate)] | < 5 | 25 to 100 | – | –
CN(Cc1cc(F)cc(OC2CCN(CC(CC#N)n3cc(-c4ncnc5[nH]ccc45)cn3)CC2)c1)C1CC1 (stereo not drawn) [Example 21, 4-[4-(3-{[cyclopropyl(methyl)amino]methyl}-5-fluorophenoxy)piperidin-1-yl]-3-[4-(7H-pyrrolo[2,3-d]pyrimidin-4-yl)-1H-pyrazol-1-yl]butanenitrile] | < 5 | > 100 | – | –
CCNC(=O)c1cc(F)cc(OC2CCN(CC(CC#N)n3cc(-c4ncnc5[nH]ccc45)cn3)CC2)c1 (stereo not drawn) [Example 9, 3-[(1-{3-Cyano-2-[4-(7H-pyrrolo[2,3-d]pyrimidin-4-yl)-1H-pyrazol-1-yl]propyl}piperidin-4-yl)oxy]-N-ethyl-5-fluorobenzamide] | < 5 | 5 to 25 | – | –
N#CCC(CN1CCC(Oc2cc(F)cc(F)c2F)CC1)n1cc(-c2ncnc3[nH]ccc23)cn1 (stereo not drawn) [Example 5, 3-[4-(7H-Pyrrolo[2,3-d]pyrimidin-4-yl)-1H-pyrazol-1-yl]-4-[4-(2,3,5-trifluorophenoxy)piperidin-1-yl]butanenitrile tris(trifluoroacetate)] | < 5 | 5 to 25 | – | –
C[C@H]1CCCN1Cc1cc(F)cc(OC2CCN(CC(CC#N)n3cc(-c4ncnc5[nH]ccc45)cn3)CC2F)c1 (single isomer, unassigned) [Example 33 diastereomer 2] | – | – | < 5 | 25 to 100
N#CCC(CN1CCC(Oc2cc(F)cc(C(=O)N3CCC(F)(F)C3)c2)CC1)n1cc(-c2ncnc3[nH]ccc23)cn1 (stereo not drawn) [Example 19, 4-(4-{3-[(3,3-Difluoropyrrolidin-1-yl)carbonyl]-5-fluorophenoxy}piperidin-1-yl)-3-[4-(7H-pyrrolo[2,3-d]pyrimidin-4-yl)-1H-pyrazol-1-yl]butanenitrile] | < 5 | 5 to 25 | – | –
N#CCC(CN1CCC(Oc2cc(F)cc(C(=O)N3CCCCC3)c2)CC1)n1cc(-c2ncnc3[nH]ccc23)cn1 (stereo not drawn) [Example 17, 4-{4-[3-Fluoro-5-(piperidin-1-ylcarbonyl)phenoxy]piperidin-1-yl}-3-[4-(7H-pyrrolo[2,3-d]pyrimidin-4-yl)-1H-pyrazol-1-yl]butanenitrile] | < 5 | 5 to 25 | – | –
CN(C)C(=O)c1cc(F)cc(OC2CCN(CC(CC#N)n3cc(-c4ncnc5[nH]ccc45)cn3)CC2)c1 (stereo not drawn) [Example 8, 3-[(1-{3-Cyano-2-[4-(7H-pyrrolo[2,3-d]pyrimidin-4-yl)-1H-pyrazol-1-yl]propyl}piperidin-4-yl)oxy]-5-fluoro-N,N-dimethylbenzamide tris(trifluoroacetate)] | < 5 | 5 to 25 | – | –
C[C@@H]1CCCN1Cc1cc(F)cc(OC2CCN(CC(CC#N)n3cc(-c4ncnc5[nH]ccc45)cn3)CC2)c1 (stereo partly drawn) [Example 28, 4-[4-(3-fluoro-5-{[(2R)-2-methylpyrrolidin-1-yl]methyl}phenoxy)piperidin-1-yl]-3-[4-(7H-pyrrolo[2,3-d]pyrimidin-4-yl)-1H-pyrazol-1-yl]butanenitrile] | < 5 | 25 to 100 | – | –
N#CCC(CN1CCC(Oc2cc(F)cc(CN3CCCCC3)c2)CC1)n1cc(-c2ncnc3[nH]ccc23)cn1 (stereo not drawn) [Example 25, 4-{4-[3-fluoro-5-(piperidin-1-ylmethyl)phenoxy]piperidin-1-yl}-3-[4-(7H-pyrrolo[2,3-d]pyrimidin-4-yl)-1H-pyrazol-1-yl]butanenitrile] | < 5 | 5 to 25 | – | –
